Data set [1] has as its system male ICR mice. The data set is described as follows: Motor activity in mice not pretreated with reserpine (open-field test). Type of data set: in vivo, mouse. The settings on record: 50 mg/kg p.o.
Description: We used male ICR mice six to seven weeks old (25 - 30 g) provided by the bioterium of the Departamento de Farmacia, Facultad de Ciencias, at Universidad Nacional de Colombia. The animals were kept under standard laboratory conditions, 12-hour light-dark cycles, and at room temperature (22 ± 1°C) with food and water available ad libitum.
The open field was a square arena divided into 16 squares with surrounding walls to prevent escape. Animals were placed individually in the middle of the open field and the specific parameter evaluated was the number of cadres traversed during 5 minutes. The open field was cleaned with a water-alcohol (10%) solution before placing the next animal to eliminate possible bias due to odors left by previous subjects.
Data set [2] has as its system male ICR mice. The data set is described as follows: Reserpine model, reversal of hypokinesia (open-field test). The note with it: reserpine 3 mg/kg i.p., 100 mg/kg p.o. Type of data set: in vivo, mouse.
Description: (§2) In the reserpine model and l-dopa/carbidopa assays, the locomotor activity was evaluated in the open-field test. The open field was a square arena divided into 16 squares with surrounding walls to prevent escape. Animals were placed individually in the middle of the open field and the specific parameter evaluated was the number of cadres traversed during 5 minutes. The open field was cleaned with a water-alcohol (10%) solution before placing the next animal to eliminate possible bias due to odors left by previous subjects.
The vehicle was a mixture of 15% propylene glycol, 15% glycerol, and enough distilled water to make up 100%. Locomotor activity was evaluated at 2 and 24 h after reserpine administration.
Data set [3] relates to male ICR mice. Put plainly: L-dopa/carbidopa plus MAO-B inhibitors in mice pretreated with reserpine (open-field test). Type of data set: in vivo, mouse. The settings on record: reserpine 3 mg/kg i.p., FCS005 100 mg/kg p.o. plus L-dopa:carbidopa 100:10 mg/kg i.p.
Description: as §2
Levodopa plus carbidopa were administrated i.p. 30 min later. Locomotor activity was evaluated at 2 and 24 h after the administration of reserpine.
In data set [4] the test system is male ICR mice. The data set is described as follows: Haloperidol-induced catalepsy, horizontal bar test. The format is in vivo, mouse. The settings on record: FCS005 100 mg/kg p.o. The protocol: Haloperidol was administered to the animals to induce rigidity and akinesia (catalepsy) [25]^,[26]. Catalepsy was defined as the prolonged maintenance of both forepaws in an atypical position on a horizontal bar.
The animals received haloperidol (3 mg/kg) i.p.; FCS005 (100 mg/kg, p.o.), levodopa:carbidopa (400 mg/kg:40 mg/kg; p.o.) or vehicle (p.o) was administrated 30 min before. The reversal of catalepsy was evaluated for 2 min 60 min after the administration of the treatments.

Data set [5] has as its system brain homogenates of mice. Put plainly: Ex vivo lipid peroxidation (TBARS) in brain homogenates of haloperidol-treated mice. The arrangement: species or system mouse. The settings on record: 10 days, FCS005 50 mg/kg p.o., levodopa:carbidopa 400:40 mg/kg p.o., haloperidol 1 mg/kg i.p., compared to control animals. As to the method:
(§1) Antioxidant activity was evaluated ex vivo. Mice were administered daily for 10 days with the treatments FCS005 (50 mg/kg, p.o.), levodopa:carbidopa (400 mg/kg:40 mg/kg, p.o.) or vehicle (p.o.) followed by haloperidol (1 mg/kg, i.p.) 30 min later. Then, the animals were killed by decapitation and the brains were removed, washed in 1% KCl, dissected on an ice-cold plate, and homogenized in 50 mM Tris-HCl buffer (pH 7.4). Homogenates were centrifuged (10,000 rpm for 10 min at 4°C). The final supernatant was stored at -20°C. The protein content of each sample was determined by the Bradford method.
The index of lipid peroxidation was evaluated following the protocol described by Hijova, et al.[27]. The brain homogenate (450 µL), 1 mL trichloroacetic acid (10%), and 50 µL of 50 mM phosphate buffer (pH 7.4) were centrifuged at 1850 xg for 10 min at 4°C; then, 1 mL of thiobarbituric acid (0.67%) was added to 1 mL of the supernatant. This mixture was heated to 92°C for 30 min and then cooled in an ice bath (4°C) before the absorbance was measured at 532 nm. The results were expressed as thiobarbituric acid reactive substances (TBARS) in mmol/mL/mg of tissue protein.

For data set [6], the system named is brain homogenates of mice. The data set is described as follows: Ex vivo protein carbonyl groups in brain homogenates of haloperidol-treated mice. The arrangement: species or system mouse. The settings on record: 10 days, FCS005 50 mg/kg p.o., levodopa:carbidopa 400:40 mg/kg p.o., haloperidol 1 mg/kg i.p., compared to control animals. The protocol: as §1
Quantification of protein carbonyl groups was determined by the technique of Levine, et al.[28], following the protocol described by Baltacioglu, et al.[29]. Briefly, 250 µL of 10 mM 2,4-dinitrophenylhydrazine (DNPH) or 250 µL of 2 M HCl were added to the brain homogenate (50 µL) for the sample or the blank, respectively. The samples were left at room temperature in the dark for 1 h and vigorously stirred every 15 min. Then, 500 µL of trichloroacetic acid (20%) was added. The samples were kept in an ice bath for 15 min and then centrifuged at 11,000 rpm for 5 min. […] The absorbance was determined at 360 nm. The content of carbonyl groups was calculated based on the molar extinction coefficient of DNPH (ε = 22 000 cm-1M-1) and expressed as nmol/mg protein [29].

The target in data set [7] is T1, recombinant hMAO-A (Homo sapiens, UniProt P21397).
T1 sequence (P21397 1-527): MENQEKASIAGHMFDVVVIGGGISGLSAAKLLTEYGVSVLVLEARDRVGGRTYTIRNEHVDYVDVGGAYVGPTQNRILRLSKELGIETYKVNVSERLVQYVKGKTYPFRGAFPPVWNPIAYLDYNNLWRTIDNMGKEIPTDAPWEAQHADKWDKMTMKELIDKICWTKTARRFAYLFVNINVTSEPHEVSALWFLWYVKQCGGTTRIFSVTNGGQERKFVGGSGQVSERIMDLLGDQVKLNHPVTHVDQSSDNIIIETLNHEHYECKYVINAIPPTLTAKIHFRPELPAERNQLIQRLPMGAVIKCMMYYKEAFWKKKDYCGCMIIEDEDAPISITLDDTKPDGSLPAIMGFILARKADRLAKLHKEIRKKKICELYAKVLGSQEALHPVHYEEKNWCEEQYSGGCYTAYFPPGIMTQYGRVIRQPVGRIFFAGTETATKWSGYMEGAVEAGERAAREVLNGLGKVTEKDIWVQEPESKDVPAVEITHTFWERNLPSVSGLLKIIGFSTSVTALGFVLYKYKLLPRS
The data set is described as follows: hMAO-A inhibitory activity (Amplex Red MAO kit).
Description: (§3) In the control experiments, the test drugs were replaced with dilutions of the vehicles. In addition, the specific fluorescence emission was calculated after subtraction of the background activity, which was determined from wells containing all components except the hMAO isoforms that were replaced by a sodium phosphate buffer solution.

Data set [8] has as its target T2, recombinant hMAO-B (Homo sapiens, UniProt P27338).
T2 sequence (P27338 1-520): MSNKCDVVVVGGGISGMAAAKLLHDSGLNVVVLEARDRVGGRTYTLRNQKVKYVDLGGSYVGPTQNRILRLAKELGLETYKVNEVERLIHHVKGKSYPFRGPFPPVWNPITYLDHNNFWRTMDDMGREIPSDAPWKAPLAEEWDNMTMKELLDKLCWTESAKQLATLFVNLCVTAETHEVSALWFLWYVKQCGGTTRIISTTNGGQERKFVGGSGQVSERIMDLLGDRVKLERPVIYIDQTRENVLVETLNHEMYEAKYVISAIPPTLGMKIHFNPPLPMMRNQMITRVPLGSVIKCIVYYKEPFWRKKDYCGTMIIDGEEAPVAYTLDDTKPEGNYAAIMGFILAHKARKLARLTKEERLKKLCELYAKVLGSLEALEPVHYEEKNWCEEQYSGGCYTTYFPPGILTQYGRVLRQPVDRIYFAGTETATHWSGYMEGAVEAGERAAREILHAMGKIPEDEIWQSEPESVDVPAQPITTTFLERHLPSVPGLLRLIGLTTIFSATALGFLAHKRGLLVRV
Put plainly: hMAO-B inhibitory activity (Amplex Red MAO kit).
Description: as §3

In data set [9] the test system is MAO activities in rat brain mitochondria. Also noted: method as in PMID 11169165. The settings on record: in vitro; cited from earlier work.

Marks after values point to notes of the source that are not given here.

The term IC50 denotes the concentration that gives 50% inhibition.

For `Cc1coc2cc3oc(=O)ccc3cc12` [FCS005, 3-methyl-7H-furo[3,2-g]chromen-7-one], the “Locomotor activity (number of cadres traversed in 5 min)” value in [1] (at 2 hours, p: 0.023 vs control) was “significant decrease in the locomotor activity”; in data set [1] (at 24 hours, p: 0.003 vs control) it was “significant decrease in the locomotor activity”. Moreover, the “Reversal of hypokinesia produced by reserpine (number of cadres traversed)” value in data set [2] (2 h after reserpine, p: 0.007 vs control) was “reversal of hypokinesia”; in data set [2] (24 h after reserpine, p: 0.002 vs control), “reversal of hypokinesia”. Besides, the “Number of cadres traversed” value is on record as “increased the number of cadres traversed” in [3] (2 h after reserpine, p: 0.038 vs control) and “increased the number of cadres traversed” in data set [3] (24 h after reserpine, p: 0.018 vs control). Also, the Total catalepsy time entry in data set [4] (haloperidol 3 mg/kg i.p., levodopa:carbidopa 400:40 mg/kg p.o., at 60 min, p: 0.001) is given as “significant decrease in the total catalepsy time”. The “Cataleptic effects of the treatment itself” value in data set [4] (horizontal bar test) was “did not show any cataleptic effects”. Further, in data set [5], the “Lipid peroxidation levels (TBARS)” value is “lower”. For the same compound, the Protein carbonyl groups result in data set [6] is on record as “lower”. In addition, the values for the IC50 in data set [7] and in [8] were over 100 µM and 41.6 ± 2.79 µM, respectively. In addition, the “Inhibition of MAO-A isoform activity” value in data set [7] (at the highest concentration tested (100 µM)) is reported as “did not inhibit MAO-A isoform activity”. Further, in data set [8] (MAO-B vs MAO-A), the “Selectivity of MAO inhibition” value is recorded as “selective inhibitory activity towards MAO-B”. Moreover, the “Selectivity index [IC50 (hMAO-A)]/[IC50 (hMAO-B)]” value in data set [8] (hMAO-B selectivity ratio, for FCS005 hMAO-A IC50 assumed to be 100 µM (highest concentration tested)) was > 2.4^c.
As to `O=c1ccc2cc3ccoc3cc2o1` [Psoralen], the “Inhibitory actions on MAO activities, isoform preference” value in [9] is given as “preferentially inhibiting MAO-A activity over MAO-B activity”.

These data come from paper PMC7357371, “Coumarin analogue 3-methyl-7H-furo[3,2-g]chromen-7-one as a possible antiparkinsonian agent” (Biomédica, 2019).
